Measurements as given in patent US7259004B1, “Endophytic streptomycetes from higher plants with biological activity” (Montana State University, priority 2002, dated 2007).

Experiments:
[1] = test system: Pseudomonas aeruginosa ATCC 27853; test: disk diffusion assay; type: cell-based; conditions: A3-5-1 10 micrograms; Chloramphenicol 30 micrograms; MHA 35° C.
[2] = test system: Enterococcus faecalis ATCC 29212; test: disk diffusion assay; type: cell-based; conditions: MHA 35° C.
[3] = test system: Enterococcus faecalis ATCC 51299; test: disk diffusion assay; type: cell-based; conditions: A3-5-1 10 micrograms; Chloramphenicol 30 micrograms; MHA 35° C.
[4] = test system: Staphylococcus aureus ATCC 29213; test: disk diffusion assay; type: cell-based; conditions: MHA 35° C.
[5] = test system: Acinetobacter sp. ATCC 49137; test: disk diffusion assay; type: cell-based; conditions: A3-5-1 10 micrograms; Chloramphenicol 30 micrograms; MHA 35° C.
[6] = test system: Streptococcus pneumoniae ATCC 49619; test: disk diffusion assay; type: cell-based; conditions: A3-5-1 10 micrograms; Chloramphenicol 30 micrograms; MHA w/5% dsb 35° C. w/5% CO2
[7] = test system: Escherichia coli ATCC 25922; test: disk diffusion assay; type: cell-based; conditions: MHA 35° C.
S. epidermis ATCC 12228 = test: disk diffusion assay; type: cell-based, Staphylococcus epidermidis; conditions: MHA 35° C.
[8] = test system: S. maltophilia ATCC 13637; test: disk diffusion assay; type: cell-based, Stenotrophomas maltophilia; conditions: MHA 35° C.
[9] = test system: Shigella dysenteriae ATCC 11835; test: disk diffusion assay; type: cell-based
[10] = test system: Enterococcus faecium ATCC 49624; test: disk diffusion assay; type: cell-based; conditions: for Disk Diffusion, Enterococcus faecium 49624: MHA 35° C.
[11] = test system: Enterococcus faecium ATCC 51559; test: disk diffusion assay; type: cell-based; conditions: 10 micrograms per disk; ciprofloxacin 5, vancomycin 30 micrograms per disk; 35° C.
B. subtilis 1A757 = test: microbe, parasite or virus in culture; type: cell-based, Bacillus subtilis
[12] = test system: Human Cervical Cancer Epithelial ME180; test: CellTiter 96 Aqueous Non-Radioactive Cell Proliferation Assay; type: cell-based; conditions: Homo sapiens, ME-180; 48 hours; Table 7; read-out: IC50 Human Cervical Cancer Epithelial ME180
Method in brief: (§1)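 Cells rested 5 h at 37° C after seeding, then treated in triplicate with two-fold serial dilutions of compound. A-549 and ME-180 were exposed for 48 h. After 1–4 h MTS reagent at 37° C, OD490 was read and corrected by subtracting medium-only blanks.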

[13] = test system: Human Lung Cancer Epithelial A549; test: as above; type: cell-based; conditions: Homo sapiens, A549; 48 hours; Table 7; read-out: IC50 Human Lung Cancer Epithelial A549
Method in brief: as §1

[14] = test system: DNA synthesis in Bacillus subtilis; test: macromolecular synthesis whole cell assay, [3H]thymidine incorporation; type: cell-based; conditions: 1×MIC
[15] = test system: Protein synthesis in Bacillus subtilis; test: macromolecular synthesis whole cell assay, [3H]amino acid mixture incorporation; type: cell-based; conditions: 1×MIC
[16] = test system: Eschericia coli ATCC 10536; test: disk diffusion assay; conditions: A3-5-1 10 micrograms; Chloramphenicol 30 micrograms; MHA 35° C.
[17] = test system: Eschericia coli ATCC 35218; test: disk diffusion assay; conditions: A3-5-1 10 micrograms; Chloramphenicol 30 micrograms; MHA 35° C.
[18] = test system: Haemophilus influenzae ATCC 49247; test: disk diffusion assay; conditions: A3-5-1 10 micrograms; Chloramphenicol 30 micrograms; HTM 35° C. with 5% CO2
[19] = test system: Neiseseria gonorrhoeae ATCC 49266; test: disk diffusion assay; conditions: A3-5-1 10 micrograms; Chloramphenicol 30 micrograms; GCA w/ 1% supplement in 5% CO2
[20] = test system: Salmonella typhimurium ATCC 13311; test: disk diffusion assay; conditions: MHA 35° C.
[21] = test system: Micrococcus luteus ATCC 9341; test: disk diffusion assay; conditions: kakadumycin B at 10 μg; control antibiotic; MHA 35° C.
[22] = test system: Staphylococcus aureus (GISA) ATCC 700699; test: disk diffusion assay; conditions: MHA 35° C.
[23] = test system: Staphylococus aureus (GISA) ATCC 700787; test: disk diffusion assay; conditions: A3-5-1 10 micrograms; Chloramphenicol 30 micrograms; MHA 35° C.
[24] = A3-5-1 10 micrograms, Chloramphenicol 30 micrograms
[25] = kakadumycin B at 10 μg, control antibiotic

Q: Which results are given for `O=C(N[C@H](CO)[C@H](O)c1ccc([N+](=O)[O-])cc1)C(Cl)Cl` [Chloramphenicol, reference compound]?
A: Disk Diffusion, Pseudomonas aeruginosa 27853 [1]: R; Disk Diffusion, Enterococcus faecalis 29212 [2, 24]: 20 mm; Disk Diffusion, Enterococcus faecalis 29212 [2, 25]: 20 mm; Disk Diffusion, Enterococcus faecalis (VRE) 51299 [3]: 8 mm; Disk Diffusion, Staphylococcus aureus 29213 [4, 24]: 25 mm; Disk Diffusion, Staphylococcus aureus 29213 [4, 25]: 19 mm; Disk Diffusion, Acinetobacter spp. 49137 [5]: 8 mm; Disk Diffusion, Streptococcus pneumoniae 49619 [6]: 22 mm; Disk Diffusion, Eschericia coli 25922 [7, 24]: 29 mm; Disk Diffusion, Escherichia coli 25922 [7, 25]: 26 mm; Disk Diffusion, Staphylococcus epidermidis 12228 (S. epidermis ATCC 12228; [24]): 30 mm; Disk Diffusion, Staphylococcus epidermidis 12228 (S. epidermis ATCC 12228; [25]): 31 mm; Disk Diffusion, Stenotrophomas maltophilia 13637 [8, 24]: 28 mm; Disk Diffusion, Stenotrophomas maltophilia 13637 [8, 25]: 25 mm; diameter of the zone of inhibition, Shigella dysenteriae ATCC 11835 ([9]; 10 micrograms per disk, 35° C.): 11 mm; Disk Diffusion, Shigella dysenteriae 11835 ([9]; A3-5-1 10 micrograms, Chloramphenicol 30 micrograms, MHA 35° C.): 40 mm; diameter of the zone of inhibition, Enterococcus faecium ATCC 49624 ([10]; 10 micrograms per disk, ciprofloxacin 5, vancomycin 30 micrograms per disk, 35° C.): 24 mm; Disk Diffusion, Enterococcus faecium 49624 [10, 24]: 25 mm; Disk Diffusion, Enterococcus faecium 49624 [10, 25]: 20 mm; diameter of the zone of inhibition, Enterococcus faecium ATCC 51559 [11]: 24 mm; 1×MIC against Bacillus subtilis (B. subtilis 1A757): 4 micrograms/ml; IC50 [12]: > 40 µg/mL; IC50 [13]: > 40 µg/mL; % [3H]thymidine (DNA synthesis) incorporation of that of the untreated culture ([14]; 5 min): 58%; % [3H]thymidine (DNA synthesis) incorporation of that of the untreated culture ([14]; 10 min): 44%; % [3H]amino acid mixture (Protein synthesis) incorporation of that of the untreated culture ([15]; 5 min): 44%; % [3H]amino acid mixture (Protein synthesis) incorporation of that of the untreated culture ([15]; 10 min): 36%; Disk Diffusion, Eschericia coli 10536 [16]: 28 mm; Disk Diffusion, Eschericia coli 35218 [17]: R; Disk Diffusion, Haemophilus influenzae 49247 [18]: 23 mm; Disk Diffusion, Neiseseria gonorrhoeae 49266 [19]: 33 mm; Disk Diffusion, Salmonella typhimurium 13311 [20, 24]: 28 mm; Disk Diffusion, Salmonella typhimurium 13311 [20, 25]: 28 mm; Disk Diffusion, Micrococcus luteus 9341 [21]: 29 mm; Disk Diffusion, Staphylococcus aureus (GISA) 700699 [22, 24]: 26 mm; Disk Diffusion, Staphylococcus aureus (GISA) 700699 [22, 25]: 29 mm; Disk Diffusion, Staphylococus aureus (GISA) 700787 [23]: 29 mm
